Numbered stars: 1 amine (or outer) side, 2 acyl side, 3 side chain; on linkers, the order of the positions; unused ones are H or OH. Bridge positions count the residues as written; N and C are the ends. Square brackets hold non-standard residues; d marks the D form. Side chains are listed from the residue outwards. Peptide text beside a SMILES is read from it. * marks the point of attachment. Nle(6-ylidene) = O=C([C@H](CCCC=[*:3])N[*:1])[*:2]; S7 = C[C@@](CCCCCC=[*:3])(N[*:1])C(=O)[*:2]; X1 = C[C@](CCCCC=[*:3])(N[*:1])C(=O)[*:2]; γGlu = O=C(O)[C@H](CCC(=O)[*:2])N[*:1]; Palmitoyl = CCCCCCCCCCCCCCCC(=O)*; S5 = C=CCCC[C@](C)(N)C(=O)O; Aib = CC(C)(N)C(=O)O
Target: T1, human GCGR (Homo sapiens, UniProt P47871)
T1 construct: expressed in transfected cells; assay-ready frozen cells grown with Blasticidin and Hygromycin
T1 sequence (P47871 26-477): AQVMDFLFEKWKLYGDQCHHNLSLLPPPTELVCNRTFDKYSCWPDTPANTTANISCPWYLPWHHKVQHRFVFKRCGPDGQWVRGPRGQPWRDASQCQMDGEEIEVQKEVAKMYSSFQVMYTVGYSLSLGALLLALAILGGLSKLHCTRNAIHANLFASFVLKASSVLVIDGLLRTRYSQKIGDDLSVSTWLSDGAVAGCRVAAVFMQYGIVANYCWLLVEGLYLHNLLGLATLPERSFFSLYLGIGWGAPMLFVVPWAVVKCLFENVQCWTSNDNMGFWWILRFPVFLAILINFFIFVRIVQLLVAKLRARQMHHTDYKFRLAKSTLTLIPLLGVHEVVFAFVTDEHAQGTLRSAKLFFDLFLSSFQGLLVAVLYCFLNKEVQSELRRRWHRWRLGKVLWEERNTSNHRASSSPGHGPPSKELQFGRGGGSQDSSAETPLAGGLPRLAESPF
Experiment: cAMP activity assay, cells expressing human GCGR (HitHunter cAMP XS)
Format: cell-based
Conditions: for EC50: cAMP production, 1 hour at room temperature, assay buffer with or without 20% human serum (not stated which); for hGCGR/hGLP1R (hTone): ratio of human GCGR EC50 to human GLP1R EC50
Experimental: Activity of the peptides at the Glucagon receptor (GCGR) and GLP-1 receptor (GLP1R) was measured in a cAMP activity assay.
Peptides were dissolved in 100% DMSO and serially diluted to generate 10 point titrations. The peptide solutions were then transferred into 384-well assay plates (150 nL/well).
Assay ready frozen cells expressing human GLP1R or human GCGR were suspended in growth media consisting of DMEM medium (GIBCO), 10% FBS (GIBCO), 1x NEAA(GIBCO), 1x P/S (GIBCO), 10ug/ml Blasticidin (GIBCO) and 200 µg/mL Hygromycin (GIBCO). Cells were then diluted in assay buffer consisting of PBS (GIBCO), 7.5% BSA (Perkin Elmer), 100 µM RO 20-1724 (Sigma), with or without 20% human serum (MP Biomedical). The cell suspensions (15 µL) were then added to the assay plates containing the peptide solutions (30,000 cells/well for human GCGR; 10.000 cells/well for human GLP1R). The cells were incubated for 1 hour at room temperature in the dark. Production of cAMP was determined using HitHunter™ cAMPXS kits (DiscoverX) following manufacturer protocol. The plates were incubated for overnight at room temperature in the dark. Luminescence was measured using an EnVision Multilabel plate reader (Perkin Elmer). Native GLP-1 and Glucagon (Bachem) are used as control peptides. EC50 values were calculated using uses a 4 parameter logistic fit based on the Levenberg-Marquardt algorithm.

SMILES | EC50 | hGCGR/hGLP1R (hTone)
CC(C)C[C@H](NC(=O)[C@H](Cc1ccc(O)cc1)NC(=O)[C@H](CCCCN)NC(=O)[C@H](CO)NC(=O)[C@H](CCCCN)NC(=O)[C@H](CC(=O)O)NC(=O)[C@H](CO)NC(=O)[C@@H](NC(=O)[C@H](Cc1ccccc1)NC(=O)[C@@H](NC(=O)CNC(=O)[C@H](CCC(N)=O)NC(=O)[C@@H](CO)NC(=O)[C@@H](N)Cc1c[nH]cn1)[C@@H](C)O)[C@@H](C)O)C(=O)N[C@@H](CC(=O)O)C(=O)N[C@@H](CCC(=O)O)C(=O)N[C@]1(C)CCCCC=CCCCCC[C@@](C)(C(=O)N[C@@H](Cc2c[nH]c3ccccc23)C(=O)N[C@@H](CC(C)C)C(=O)N[C@@H](CC(C)C)C(=O)N[C@@H](CC(=O)O)C(=O)N[C@H](C(N)=O)[C@@H](C)O)NC(=O)[C@H](C(C)C)NC(=O)[C@H](Cc2ccccc2)NC(=O)[C@H](CC(=O)O)NC(=O)[C@H](CCC(N)=O)NC(=O)[C@H](C)NC(=O)[C@H](C)NC1=O [compound 9] (H-H[dS]QGTFTSDKSKYLDE[X1]AAQDFV[S7]WLLDT-NH2; staple 17-24) | 5 nM | –
CCCCCCCCCCCCCCCC(=O)N[C@@H](CCC(=O)N[C@@H](CCC(=O)NCCCC[C@H](NC(=O)[C@H](CC(=O)O)NC(=O)[C@H](CO)NC(=O)[C@@H](NC(=O)[C@H](Cc1ccccc1)NC(=O)[C@@H](NC(=O)CNC(=O)[C@H](CCC(N)=O)NC(=O)[C@@H](CO)NC(=O)[C@@H](N)Cc1c[nH]cn1)[C@@H](C)O)[C@@H](C)O)C(=O)N[C@@H](CO)C(=O)N[C@@H](CCCCN)C(=O)N[C@@H](Cc1ccc(O)cc1)C(=O)N[C@@H](CC(C)C)C(=O)N[C@@H](CC(=O)O)C(=O)N[C@@H](CCC(=O)O)C(=O)N[C@]1(C)CCCCC=CCCCCC[C@@](C)(C(=O)N[C@@H](Cc2c[nH]c3ccccc23)C(=O)N[C@@H](CC(C)C)C(=O)N[C@@H](CC(C)C)C(=O)N[C@@H](CC(=O)O)C(=O)N[C@H](C(N)=O)[C@@H](C)O)NC(=O)[C@H](C(C)C)NC(=O)[C@H](Cc2ccccc2)NC(=O)[C@H](CC(=O)O)NC(=O)[C@H](CCC(N)=O)NC(=O)[C@H](C)NC(=O)[C@H](C)NC1=O)C(=O)O)C(=O)O [compound 8] (H-H[dS]QGTFTSDK([γGlu-γGlu-Palmitoyl])SKYLDE[X1]AAQDFV[S7]WLLDT-NH2; staple 17-24) | 5 nM | –
CCCCCCCCCCCCCCCC(=O)N[C@@H](CCC(=O)N[C@@H](CCC(=O)NCCCC[C@H](NC(=O)[C@H](CC(=O)O)NC(=O)[C@H](CO)NC(=O)[C@@H](NC(=O)[C@H](Cc1ccccc1)NC(=O)[C@@H](NC(=O)CNC(=O)[C@H](CCC(N)=O)NC(=O)[C@@H](CO)NC(=O)[C@@H](N)Cc1c[nH]cn1)[C@@H](C)O)[C@@H](C)O)C(=O)N[C@@H](CO)C(=O)N[C@@H](CCCCN)C(=O)N[C@@H](Cc1ccc(O)cc1)C(=O)N[C@@H](CC(C)C)C(=O)N[C@@H](CC(=O)O)C(=O)N[C@@H](CCC(=O)O)C(=O)N[C@@H](CCCNC(=N)N)C(=O)N[C@@H](C)C(=O)N[C@@H](C)C(=O)N[C@]1(C)CCCCC=CCCCCC[C@@](C)(C(=O)N[C@@H](CC(=O)O)C(=O)N[C@H](C(N)=O)[C@@H](C)O)NC(=O)[C@H](CC(C)C)NC(=O)[C@H](Cc2c[nH]c3ccccc23)NC(=O)[C@H](CCC(N)=O)NC(=O)[C@H](C(C)C)NC(=O)[C@H](Cc2ccccc2)NC(=O)[C@H](CC(=O)O)NC1=O)C(=O)O)C(=O)O [compound 10] (H-H[dS]QGTFTSDK([γGlu-γGlu-Palmitoyl])SKYLDERAA[X1]DFVQWL[S7]DT-NH2; staple 20-27) | – | 19.02
CCCCCCCCCCCCCCCC(=O)N[C@@H](CCC(=O)N[C@@H](CCC(=O)NCCCC[C@H](NC(=O)[C@H](CC(=O)O)NC(=O)[C@H](CO)NC(=O)[C@@H](NC(=O)[C@H](Cc1ccccc1)NC(=O)[C@@H](NC(=O)CNC(=O)[C@H](CCC(N)=O)NC(=O)[C@@H](CO)NC(=O)[C@@H](N)Cc1c[nH]cn1)[C@@H](C)O)[C@@H](C)O)C(=O)N[C@@H](CO)C(=O)N[C@]1(C)CCCCC=CCCCCC[C@@](C)(C(=O)N[C@@H](CCC(N)=O)C(=O)N[C@@H](CC(=O)O)C(=O)N[C@@H](Cc2ccccc2)C(=O)N[C@H](C(=O)N[C@@H](CCC(N)=O)C(=O)N[C@@H](Cc2c[nH]c3ccccc23)C(=O)N[C@@H](CC(C)C)C(=O)N[C@@H](CC(C)C)C(=O)N[C@@H](CC(=O)O)C(=O)N[C@H](C(N)=O)[C@@H](C)O)C(C)C)NC(=O)[C@H](C)NC(=O)[C@H](CCCNC(=N)N)NC(=O)[C@H](CCC(=O)O)NC(=O)[C@H](CC(=O)O)NC(=O)[C@H](CC(C)C)NC(=O)[C@H](Cc2ccc(O)cc2)NC1=O)C(=O)O)C(=O)O [compound 7] (H-H[dS]QGTFTSDK([γGlu-γGlu-Palmitoyl])S[X1]YLDERA[S7]QDFVQWLLDT-NH2; staple 12-19) | 5 nM | –

Continued, values first:

EC50 | hGCGR/hGLP1R (hTone) | SMILES
5 nM | 19.11 | CCCCCCCCCCCCCCCC(=O)N[C@@H](CCC(=O)N[C@@H](CCC(=O)NCCCC[C@H](NC(=O)[C@H](CC(=O)O)NC(=O)[C@H](CO)NC(=O)[C@@H](NC(=O)[C@H](Cc1ccccc1)NC(=O)[C@@H](NC(=O)CNC(=O)[C@H](CCC(N)=O)NC(=O)C(C)(C)NC(=O)[C@@H](N)Cc1c[nH]cn1)[C@@H](C)O)[C@@H](C)O)C(=O)N[C@@H](CO)C(=O)N[C@@H](CCCCN)C(=O)N[C@@H](Cc1ccc(O)cc1)C(=O)N[C@@H](CC(C)C)C(=O)N[C@@H](CC(=O)O)C(=O)NC(C)(C)C(=O)N[C@@H](CCCNC(=N)N)C(=O)N[C@@H](C)C(=O)N[C@@H](C)C(=O)N[C@@H](CCC(N)=O)C(=O)N[C@]1(C)CCCCC=CCCCCC[C@@](C)(C(=O)N[C@H](C(=O)N[C@@H](CCCCN)C(=O)N[C@@H](CCC(N)=O)C(=O)O)[C@@H](C)O)NC(=O)[C@H](CCSC)NC(=O)[C@H](CC(C)C)NC(=O)[C@H](Cc2c[nH]c3ccccc23)NC(=O)[C@H](CCC(N)=O)NC(=O)[C@H](C(C)C)NC(=O)[C@H](Cc2ccccc2)NC1=O)C(=O)O)C(=O)O [compound 13] (H-H[Aib]QGTFTSDK([γGlu-γGlu-Palmitoyl])SKYLD[Aib]RAAQ[X1]FVQWLM[S7]TKQ-OH; staple 21-28)
– | 0.77 | CC(C)C[C@H](NC(=O)[C@H](Cc1ccc(O)cc1)NC(=O)[C@H](CCCCN)NC(=O)[C@H](CO)NC(=O)[C@H](CCCCN)NC(=O)[C@H](CC(=O)O)NC(=O)[C@H](CO)NC(=O)[C@@H](NC(=O)[C@H](Cc1ccccc1)NC(=O)[C@@H](NC(=O)CNC(=O)[C@H](CCC(N)=O)NC(=O)[C@@H](CO)NC(=O)[C@@H](N)Cc1c[nH]cn1)[C@@H](C)O)[C@@H](C)O)C(=O)N[C@@H](CC(=O)O)C(=O)N[C@@H](CCC(=O)O)C(=O)N[C@@H](CCCNC(=N)N)C(=O)N[C@@H](C)C(=O)N[C@@H](C)C(=O)N[C@@]1(C)CCCC=CCCC[C@@](C)(C(=O)N[C@@H](Cc2c[nH]c3ccccc23)C(=O)N[C@@H](CC(C)C)C(=O)N[C@@H](CC(C)C)C(=O)N[C@@H](CC(=O)O)C(=O)N[C@H](C(N)=O)[C@@H](C)O)NC(=O)[C@H](C(C)C)NC(=O)[C@H](Cc2ccccc2)NC(=O)[C@H](CC(=O)O)NC1=O [compound 19] (H-H[dS]QGTFTSDKSKYLDERAA[S5]DFV[S5]WLLDT-NH2; staple 20-24)
– | 1.42 | CC(C)C[C@H](NC(=O)[C@H](Cc1ccc(O)cc1)NC(=O)[C@H](CCCCN)NC(=O)[C@H](CO)NC(=O)[C@H](CCCCN)NC(=O)[C@H](CC(=O)O)NC(=O)[C@H](CO)NC(=O)[C@@H](NC(=O)[C@H](Cc1ccccc1)NC(=O)[C@@H](NC(=O)CNC(=O)[C@H](CCC(N)=O)NC(=O)[C@@H](CO)NC(=O)[C@@H](N)Cc1c[nH]cn1)[C@@H](C)O)[C@@H](C)O)C(=O)N[C@@H](CC(=O)O)C(=O)N[C@@H](CCC(=O)O)C(=O)N[C@@H](CCCNC(=N)N)C(=O)N[C@@H](C)C(=O)N[C@@H](C)C(=O)N[C@H]1CCCC=CCCC[C@@H](C(=O)N[C@@H](Cc2c[nH]c3ccccc23)C(=O)N[C@@H](CC(C)C)C(=O)N[C@@H](CC(C)C)C(=O)N[C@@H](CC(=O)O)C(=O)N[C@H](C(N)=O)[C@@H](C)O)NC(=O)[C@H](C(C)C)NC(=O)[C@H](Cc2ccccc2)NC(=O)[C@H](CC(=O)O)NC1=O [compound 17] (H-H[dS]QGTFTSDKSKYLDERAA[Nle(6-ylidene)]DFV[Nle(6-ylidene)]WLLDT-NH2; staple 20-24)
5 nM | 1.82 | CC(C)C[C@H](NC(=O)[C@H](Cc1ccc(O)cc1)NC(=O)[C@H](CCCCN)NC(=O)[C@H](CO)NC(=O)[C@H](CCCCN)NC(=O)[C@H](CC(=O)O)NC(=O)[C@H](CO)NC(=O)[C@@H](NC(=O)[C@H](Cc1ccccc1)NC(=O)[C@@H](NC(=O)CNC(=O)[C@H](CCC(N)=O)NC(=O)[C@@H](CO)NC(=O)[C@@H](N)Cc1c[nH]cn1)[C@@H](C)O)[C@@H](C)O)C(=O)N[C@@H](CC(=O)O)C(=O)N[C@@H](CCC(=O)O)C(=O)N[C@@H](CCCNC(=N)N)C(=O)N[C@@H](C)C(=O)N[C@@H](C)C(=O)N[C@]1(C)CCCCC=CCCCCC[C@@](C)(C(=O)N[C@@H](CC(=O)O)C(=O)N[C@H](C(N)=O)[C@@H](C)O)NC(=O)[C@H](CC(C)C)NC(=O)[C@H](Cc2c[nH]c3ccccc23)NC(=O)[C@H](CCC(N)=O)NC(=O)[C@H](C(C)C)NC(=O)[C@H](Cc2ccccc2)NC(=O)[C@H](CC(=O)O)NC1=O [compound 11] (H-H[dS]QGTFTSDKSKYLDERAA[X1]DFVQWL[S7]DT-NH2; staple 20-27)

From patent US20230270825A1, “STAPLED OLEFIN CO-AGONISTS OF THE GLUCAGON AND GLP-1 RECEPTORS” (Merck Sharp & Dohme LLC, priority 2019, published 2023)
